Test results taken from EP0026746A1, “Combinatory compositions for use in a method for enhancing the activity of antibiotics, antibiotic preparations having enhanced activity and process for their production” (CIBA-GEIGY AG, priority 1979, dated 1981).

How the values were obtained:
Experiment in all cases: Mouse protection test, i.p. infection, survival ED50
Format in all cases: in vivo
[1] = tested on: Klebsiella pneumoniae 327; conditions: Klebsiella pneumoniae, 327, sc, mice, 60 x 10^4 cfu i.p., s.c. immediately and 3 h after infection, survivors
Excerpt: (§1) Die hohe antibiotische Wirkung des neuen Verfahrens und der neuen Präparate kann durch "in vivo"-Versuche nachgewiesen werden, die an verschiedenen Tierarten, insbesondere an Säugetieren, wie Mäusen, durchgeführt werden. Dazu infiziert man sie mit einer letalen oder sub-letalen Dosis eines pathogenen Microorganismus und gibt dann das genannte neue Präparat bzw. die einzelnen Dosen an Muramylpeptid und Antibiotikum. Die Wirkung wird als ED bestimmt, das ist diejenige Dosis bei denen […] der Tiere überleben.
(§2) Beispiel 4: Man infiziert weisse Laboratoriums-Mäuse auf i.p. Wege mit den in der nachfolgenden Tabelle angeführten pathogenen Mikroorganismen in Salzlösung, so dass 90-100% der nicht behandelten Kontrolltiere innerhalb von 48 Stunden getötet werden. Unmittelbar, sowie 3 Stunden nach der Infektion werden Gruppen zu je 10 Mäusen mit Cefroxadin, sowohl allein (ohne MDP oder nMDP) als auch in Kombination mit N-Acetyl-muramyl-L-alanyl-D-isoglutamin (MDP) bzw. mit N-Acetyldesmethylmuramyl-L-alanyl-D-isoglutamin (nMDP) behandelt, wobei dieselben zweimal in Form wässriger Lösungen oder Suspensionen auf subkutanem Weg verabreicht wurden. Nach 4 bzw. […] Die meisten dieser Versuche wurden zweifach ausgeführt und die Mittelwerte ermittelt.

[2] = tested on: Klebsiella pneumoniae 329; conditions: Klebsiella pneumoniae, 329, sc, 96 h, mice, 2 x 10^4 cfu i.p., s.c. immediately and 3 h after infection, survivors after 4 days
Excerpt: as §1, §2

[3] = tested on: Pasteurella multocida; conditions: sc, mice, 0.1 x 10^4 cfu i.p., s.c. immediately and 3 h after infection, survivors
Excerpt: as §1, §2

[4] = tested on: Staphylococcus aureus 2999; conditions: Staphylococcus aureus, 2999, sc, 96 h, mice, 20 000 x 10^4 cfu i.p., s.c. immediately and 3 h after infection, survivors after 4 days
Excerpt: as §1, §2

[5] = tested on: Streptococcus pyogenes 38; conditions: Streptococcus pyogenes, 38, sc, 96 h, mice, 0.6 x 10^4 cfu i.p., s.c. immediately and 3 h after infection, survivors after 4 days
Excerpt: as §1, §2

[6] = tested on: Salmonella typhimurium 273; conditions: Salmonella enterica, sc, 240 h, mice, 400 x 10^4 cfu i.p., s.c. immediately and 3 h after infection, results after 10 days
Excerpt: as §1
(§3) Beispiel 4: Man infiziert weisse Laboratoriums-Mäuse auf i.p. Wege mit den in der nachfolgenden Tabelle angeführten pathogenen Mikroorganismen in Salzlösung, so dass 90-100% der nicht behandelten Kontrolltiere innerhalb von 48 Stunden getötet werden. Unmittelbar, sowie 3 Stunden nach der Infektion werden Gruppen zu je 10 Mäusen mit Cefroxadin, sowohl allein (ohne MDP oder nMDP) als auch in Kombination mit N-Acetyl-muramyl-L-alanyl-D-isoglutamin (MDP) bzw. mit N-Acetyldesmethylmuramyl-L-alanyl-D-isoglutamin (nMDP) behandelt, wobei dieselben zweimal in Form wässriger Lösungen oder Suspensionen auf subkutanem Weg verabreicht wurden. Nach 4 bzw. 10 Tagen nach erfolgter Infektion wurden die überlebenden Tiere gezählt. Die meisten dieser Versuche wurden zweifach ausgeführt und die Mittelwerte ermittelt.

[7] = tested on: Salmonella typhimurium 277; conditions: Salmonella enterica, sc, 240 h, mice, 40 x 10^4 cfu i.p., s.c. immediately and 3 h after infection, results after 10 days
Excerpt: as §1, §3

COC1=C(C(=O)O)N2C(=O)[C@@H](NC(=O)[C@H](N)C3=CCC=CC3)[C@H]2SC1 [Cefroxadin, 7ß-[D-2-amino-2-(1,4-cyclohexadienyl)-acetamido]-3-methoxy-3-cephem-4-carbonsäure]
ED50 ([1]; mit 10 mg/kg MDP): < 50 mg/kg
ED50 ([1]; mit 10 mg/kg nMDP): < 50 mg/kg
ED50 ([1]; ohne MDP oder nMDP): 75 mg/kg
ED50 ([2]; mit 10 mg/kg MDP): 4.5 mg/kg
ED50 ([2]; mit 10 mg/kg nMDP): < 2.5 mg/kg
ED50 ([2]; ohne MDP oder nMDP): 14.2 mg/kg
ED50 ([3]; mit 10 mg/kg MDP): 37 mg/kg
ED50 ([3]; mit 10 mg/kg nMDP): 70 mg/kg
ED50 ([3]; ohne MDP oder nMDP): 109 mg/kg
ED50 ([4]; mit 10 mg/kg MDP): 45 mg/kg
ED50 ([4]; mit 10 mg/kg nMDP): 35 mg/kg
ED50 ([4]; ohne MDP oder nMDP): 58 mg/kg
ED50 ([5]; mit 10 mg/kg MDP): 0.18 mg/kg
ED50 ([5]; mit 10 mg/kg nMDP): 0.17 mg/kg
ED50 ([5]; ohne MDP oder nMDP): 0.21 mg/kg
ED50 ([6]; mit 10 mg/kg MDP): 22.5 mg/kg
ED50 ([6]; mit 10 mg/kg nMDP): 14 mg/kg
ED50 ([6]; ohne MDP oder nMDP): 39 mg/kg
ED50 ([7]; mit 10 mg/kg MDP): 7.6 mg/kg
ED50 ([7]; mit 10 mg/kg nMDP): 11 mg/kg
ED50 ([7]; ohne MDP oder nMDP): 22.5 mg/kg
